# Assay results taken from US20260041744A1, “Methods for Treating Pompe Disease” (Amicus Therapeutics, Inc., priority 2022, published 2026).
# “Also recorded” adds a separate entry of the source.
# Assays:
# [1] = system: adults with Pompe disease; assay: Study ATB200-02: MIP, MEP and other pulmonary measures; type: in vivo, human
# From the text: Mean CFBL in % predicted sitting FVC was generally stable (CFBL±3% points) for up to 48 months of follow-up in the ERT-experienced cohorts (FIG. 47A, Table 26B), with improvements (CFBL >3% points) at Months 48 in 66.7% of ERT-experienced and 75% of ERT-naïve patients.
# In the ERT-naïve cohort, mean CFBL in % predicted sitting FVC improved at 3 months and then remained generally stable up to 48 months of follow up (FIG. 47B, Table 26B), except for one patient who experienced a large drop in % predicted sitting FVC at Month 21, which returned to previous levels at the following visit at Month 24. Mean % predicted sitting FVC improvements were more marked in the ERT-naïve cohort compared with the ERT-experienced cohort over 48 months of follow up (FIG. 47B, Table 26B). […] Percent predicted sitting FVC data were supported by similar outcomes in other pulmonary measures including % predicted maximum inspiratory pressure (MIP) and MEP.
# [2] = in vivo
# Method: The ongoing open-label extension (OLE) of PROPEL (NCT04138277; ATB200-07) evaluates long-term safety and efficacy of cipa/mig. Outcomes include 6 minute walk distance (6MWD), forced vital capacity (FVC), creatine kinase (CK) and hexose tetrasaccharide (Hex4) levels and safety. Data are reported as change from the PROPEL baseline to OLE week 52 (104 weeks after the PROPEL baseline).
# [3] = system: adult subjects with Pompe disease; assay: Pooled Studies ATB200-02/03/07: MMT lower extremity score by exposure interval
# Gaa KO mice = assay: Single fiber analysis (LAMP1/LC3 co-immunofluorescence, white gastrocnemius); type: in vivo, mouse; settings: single fibers
# From the text: FIG. 17 depicts co-immunofluorescent staining of LAMP1 (green) (see for example, “B”) and LC3 (red) (see, for example, “A”) in single fibers isolated from the white gastrocnemius of Gaa KO mice treated with a vehicle, alglucosidase alfa, or ATB200. “C” depicts clearance of autophagic debris and absence of enlarged lysosome. A minimum of 30 fibers were examined from each animal.
# As a result, a significant portion of muscle fibers analyzed (36-60%) from ATB200-treated mice appeared normal or near-normal.
# [4] = system: adult subjects with late-onset Pompe disease (LOPD); assay: Study ATB200-03 (PROPEL): sitting % predicted FVC; type: in vivo, human; settings: for absolute decline in percent-predicted FVC: 52 weeks; for CHG to Week 52 in sitting % predicted FVC, LS Mean: MMRM, actual time point of assessments; for Sitting % predicted FVC CHG, LS means (SE): Week 52, ANCOVA
# Method: (§1) The test for the primary endpoint was conducted first at the 1-sided 0.025 significance level, and if significant, the ordered key secondary endpoints were similarly tested at the same significance level. The statistical significance of the key secondary endpoints was interpreted following a hierarchical testing order, each at the 1-sided alpha level of 0.025. […] Primary analyses of efficacy were performed using the mixed-effect model for repeated measures (MMRM) for 6MWD in Intent-to-treat Observed Population (ITT) that includes all available, observed data without any missing data imputation (ITT-OBS) and analysis of covariance (ANCOVA) for all other endpoints in the Intent-to-Treat-Last Observation Carried Forward (ITT-LOCF) Population. A nonparametric randomization based ANCOVA was specified as the first sensitivity analysis for 6MWD and FVC. […] For the purposes of data presentation in this document, 2-sided p-values are reported hereafter, except as otherwise noted.
# [5] = system: adult subjects with late-onset Pompe disease (LOPD); assay: Study ATB200-03 (PROPEL): MMT lower extremity score; type: in vivo, human; settings: for CHG to Week 52 in MMT lower extremity score, LS Mean: MMRM, actual time point of assessments; for MMT lower extremity score CHG, LS means (SE): Week 52, ANCOVA
# Method: as §1
# [6] = Ambulatory ERT-experienced, 12 months
# [7] = Ambulatory ERT-experienced, 24 months
# [8] = Ambulatory ERT-experienced, 36 months
# [9] = Ambulatory ERT-experienced, 48 months
# [10] = Ambulatory ERT-naïve, 12 months
# [11] = Ambulatory ERT-naïve, 24 months
# [12] = Ambulatory ERT-naïve, 36 months
# [13] = Ambulatory ERT-naïve, 48 months
# [14] = Non-ambulatory ERT-experienced, 12 months
# [15] = Non-ambulatory ERT-experienced, 24 months
# [16] = Non-ambulatory ERT-experienced, 36 months
# [17] = Non-ambulatory ERT-experienced, 48 months
# [18] = Baseline, ITT, ERT-naïve Population excluding Subject 4005-2511
# [19] = ERT-naïve excluding Subject 4005-2511
# [20] = ITT-LOCF, ERT-naïve Population excluding Subject 4005-2511
# [21] = ITT-OBS excluding Subject 4005-2511 (overall)
# [22] = ITT-OBS excluding Subject 4005-2511, ERT-naïve Subjects
# [23] = ITT-OBS, ERT-experienced Subjects
# [24] = Week 52-LOCF, ERT-experienced Population
# [25] = Week 52-LOCF, ERT-naïve Population excluding Subject 4005-2511
# [26] = Week 52-LOCF, ITT excluding Subject 4005-2511
# [27] = ITT-LOCF excluding Subject 4005-2511
# [28] = ITT-LOCF, ERT-experienced Population
substance,measurement,setting,value
"ATB200/miglustat: two-component therapy: cipaglucosidase alfa (ATB200) administered in conjunction with miglustat (AT2221), a stabilizer of cipaglucosidase alfa",MEP / MIP outcome,"[1]; 12, 24, 36, and 48 months, listed as cipaglucosidase alfa/miglustat",maximum expiratory pressure (MEP) results that also improved numerically from baseline; also recorded: MIP improved numerically in ERT-naïve patients
same,"Percent predicted Sniff Nasal Inspiratory Pressure, CFBL mean",[1]; [6],2.1%
same,"Percent predicted maximum expiratory pressure, CFBL mean",[1]; [6],9.4%
same,"Percent predicted maximum inspiratory pressure, CFBL mean",[1]; [6],3.7%
same,"Percent predicted Sniff Nasal Inspiratory Pressure, CFBL mean",[1]; [7],5.3%
same,"Percent predicted maximum expiratory pressure, CFBL mean",[1]; [7],16.8%
same,"Percent predicted maximum inspiratory pressure, CFBL mean",[1]; [7],4.5%
same,"Percent predicted Sniff Nasal Inspiratory Pressure, CFBL mean",[1]; [8],−2.3%
same,"Percent predicted maximum expiratory pressure, CFBL mean",[1]; [8],13.7%
same,"Percent predicted maximum inspiratory pressure, CFBL mean",[1]; [8],−0.5%
same,"Percent predicted Sniff Nasal Inspiratory Pressure, CFBL mean",[1]; [9],7.3%
same,"Percent predicted maximum expiratory pressure, CFBL mean",[1]; [9],17.9%
same,"Percent predicted maximum inspiratory pressure, CFBL mean",[1]; [9],−3.8%
same,"Percent predicted Sniff Nasal Inspiratory Pressure, CFBL mean",[1]; [10],9.4%
same,"Percent predicted maximum expiratory pressure, CFBL mean",[1]; [10],11.6%
same,"Percent predicted maximum inspiratory pressure, CFBL mean",[1]; [10],8.0%
same,"Percent predicted Sniff Nasal Inspiratory Pressure, CFBL mean",[1]; [11],8.1%
same,"Percent predicted maximum expiratory pressure, CFBL mean",[1]; [11],17.9%
same,"Percent predicted maximum inspiratory pressure, CFBL mean",[1]; [11],18.7%
same,"Percent predicted Sniff Nasal Inspiratory Pressure, CFBL mean",[1]; [12],4.3%
same,"Percent predicted maximum expiratory pressure, CFBL mean",[1]; [12],14.2%
same,"Percent predicted maximum inspiratory pressure, CFBL mean",[1]; [12],12.5%
same,"Percent predicted Sniff Nasal Inspiratory Pressure, CFBL mean",[1]; [13],4.6%
same,"Percent predicted maximum expiratory pressure, CFBL mean",[1]; [13],24.8%
same,"Percent predicted maximum inspiratory pressure, CFBL mean",[1]; [13],16.1%
same,"Percent predicted Sniff Nasal Inspiratory Pressure, CFBL mean",[1]; [14],4.5%
same,"Percent predicted maximum expiratory pressure, CFBL mean",[1]; [14],10.6%
same,"Percent predicted maximum inspiratory pressure, CFBL mean",[1]; [14],1.1%
same,"Percent predicted Sniff Nasal Inspiratory Pressure, CFBL mean",[1]; [15],7.8%
same,"Percent predicted maximum expiratory pressure, CFBL mean",[1]; [15],21.1%
same,"Percent predicted maximum inspiratory pressure, CFBL mean",[1]; [15],3.3%
same,"Percent predicted Sniff Nasal Inspiratory Pressure, CFBL mean",[1]; [16],−0.4%
same,"Percent predicted maximum expiratory pressure, CFBL mean",[1]; [16],11.5%
same,"Percent predicted maximum inspiratory pressure, CFBL mean",[1]; [16],−0.4%
same,"Percent predicted Sniff Nasal Inspiratory Pressure, CFBL mean",[1]; [17],−4.1%
same,"Percent predicted maximum expiratory pressure, CFBL mean",[1]; [17],21.0%
same,"Percent predicted maximum inspiratory pressure, CFBL mean",[1]; [17],3.9%
same,patients who discontinued the OLE due to infusion-associated reactions,[2],Three
same,safety and tolerability up to 104 weeks,[2],No new safety signals were identified
same,mean (SD) change from baseline in MMT lower extremity score,[3]; exposure >15 to ≤24 months (n=101),1.73 (3.675)
same,mean (SD) change from baseline in MMT lower extremity score,[3]; exposure >24 months (n=65),1.98 (4.527)
same,mean (SD) change from baseline in MMT lower extremity score,[3]; exposure ≤15 months (n=135),1.36 (3.807)
alglucosidase alfa [reference compound],Fibers with Autophagy Buildup,Gaa KO mice,>90%
same,Fibers with Normal or Near-normal Appearance,Gaa KO mice,<10%
same,"Sitting % Predicted FVC Absolute Value, Mean",[4]; [18],79.07 % predicted
same,"Sitting % predicted FVC Absolute Value, Median",[4]; [18],93.50 % predicted
same,FVC (% predicted) CFBL at Week 52,[4]; ERT switch (ERT-experienced) population,−4.0 (0.9) % predicted
same,FVC (% predicted) CFBL at Week 52,[4]; ERT treatment naive population,−3.6 % predicted
same,FVC (% predicted) CFBL at Week 52,"[4]; ERT treatment naive population, listed as Alglucosidase alfa",−3.6 (1.8) % predicted
same,absolute decline in percent-predicted FVC,[4]; ERT-experienced,4.0%
same,mean change in sitting % predicted FVC from baseline to Week 52,[4]; [19],−3.6%
same,"Change in sitting % predicted FVC baseline to Week 52, LS means (SE) from ANCOVA",[4]; [20],−2.54 (2.758) % predicted
same,"CHG to Week 52 in sitting % predicted FVC, LS Mean",[4]; [21],−3.7
same,"CHG to Week 52 in sitting % predicted FVC, LS Mean",[4]; [22],−2.4
same,"CHG to Week 52 in sitting % predicted FVC, LS Mean",[4]; [23],−3.8
same,"Sitting % predicted FVC Absolute Value, Mean (SD)",[4]; [24],63.47 (20.480) % predicted
same,"Sitting % predicted FVC Absolute Value, Median",[4]; [24],62.00 % predicted
same,"Sitting % predicted FVC CHG, Mean (SD)",[4]; [24],−4.02 (5.009) % predicted
same,"Sitting % predicted FVC CHG, Median",[4]; [24],−3.25 % predicted
same,"Sitting % Predicted FVC Absolute Value, Mean",[4]; [25],75.43 % predicted
same,"Sitting % Predicted FVC CHG (change from baseline), Mean",[4]; [25],−3.64 % predicted
same,"Sitting % Predicted FVC CHG (change from baseline), Median",[4]; [25],−3.00 % predicted
same,"Sitting % predicted FVC Absolute Value, Median",[4]; [25],85.00 % predicted
same,"Sitting % predicted FVC Absolute Value, Mean (SD)",[4]; [26],65.73 (21.109) % predicted
same,"Sitting % predicted FVC Absolute Value, Median",[4]; [26],69.00 % predicted
same,"Sitting % predicted FVC CHG, Mean (SD)",[4]; [26],−3.95 (4.892) % predicted
same,"Sitting % predicted FVC CHG, Median",[4]; [26],−3.00 % predicted
same,"Sitting % predicted FVC CHG, LS means (SE)",[4]; [27],−3.70 (0.953) % predicted
same,"Sitting % predicted FVC CHG, LS means (SE)",[4]; [28],−3.64 (1.019) % predicted
same,FVC (% predicted) CFBL at Week 52,[4]; overall ERT switch + ERT naïve population,−4.0 (0.8) % predicted
same,absolute decline in percent-predicted FVC,[4]; overall population,4.0%
same,"MMT Lower Extremity Score Absolute Value, Mean",[5]; [18],33.57
same,"MMT lower extremity score Absolute Value, Median",[5]; [18],32.00
same,mean (SD) change in MMT lower extremity score from baseline to Week 52,[5]; ERT-experienced Population,0.9 (2.81)
same,mean (SD) change in MMT lower extremity score from baseline to Week 52,[5]; [19],1.0 (1.53)
same,"Change in MMT lower extremity score baseline to Week 52, LS means (SE) from ANCOVA",[5]; [20],0.69 (1.013)
same,"CHG to Week 52 in MMT lower extremity score, LS Mean",[5]; [21],0.7
same,"CHG to Week 52 in MMT lower extremity score, LS Mean",[5]; [22],−0.0
same,"CHG to Week 52 in MMT lower extremity score, LS Mean",[5]; [23],0.9
same,"MMT lower extremity score Absolute Value, Mean (SD)",[5]; [24],26.96 (6.802)
same,"MMT lower extremity score Absolute Value, Median",[5]; [24],28.00
same,"MMT lower extremity score CHG, Mean (SD)",[5]; [24],0.85 (2.811)
same,"MMT lower extremity score CHG, Median",[5]; [24],1.00
same,"MMT Lower Extremity Score Absolute Value, Mean",[5]; [25],34.57
same,"MMT Lower Extremity Score CHG (change from baseline), Mean",[5]; [25],1.00
same,"MMT Lower Extremity Score CHG (change from baseline), Median",[5]; [25],2.00
same,"MMT lower extremity score Absolute Value, Median",[5]; [25],34.00
same,"MMT lower extremity score Absolute Value, Mean (SD)",[5]; [26],28.53 (6.999)
same,"MMT lower extremity score Absolute Value, Median",[5]; [26],29.00
same,"MMT lower extremity score CHG, Mean (SD)",[5]; [26],0.88 (2.579)
same,"MMT lower extremity score CHG, Median",[5]; [26],1.00
same,"MMT lower extremity score CHG, LS means (SE)",[5]; [27],0.68 (0.603)
same,"MMT lower extremity score CHG, LS means (SE)",[5]; [28],0.90 (0.735)
same,mean (SD) change in MMT lower extremity score from baseline to Week 52,[5]; overall population,0.9 (2.58)
